{
  "source": "patent US20090105277A1",
  "about": "“AGENT FOR PREVENTING AND/OR TREATING MOVEMENT DISORDER” (KYOWA HAKKO KOGYO CO., LTD., priority 2005, published 2009)",
  "key": {"[1]": {"tested_on": "6-OHDA treated rats (Parkinson's disease model rat)", "assay": "L-DOPA induced contralateral rotational behavior (antiparkinsonian effect) in the Parkinson's disease model rats", "format": "in vivo", "details": "for number of rotations: oral, total count in 3 hr; for antiparkinsonian activity compared with single administration of L-DOPA 20 mg/kg: L-DOPA 10 mg/kg and test compound combined; for effect on L-DOPA induced rotational behavior, namely antiparkinsonian activity: combined with L-DOPA 10 mg/kg, vs L-DOPA 10 mg/kg + 0.5% MC solution"}, "[2]": {"tested_on": "involuntary movement (e.g., dyskinesia) model rats", "assay": "Abnormal involuntary movements (AIMs) in involuntary movement (dyskinesia) model rats given repeated L-DOPA", "format": "in vivo, rat", "details": "for AIMs score axial, limb, orolingual, day 1-3 / AIMs score locomotive, day 1-3 / AIMs score axial, limb, orolingual, day 8-10 / AIMs score locomotive, day 8-10: oral, multiple doses; for AIMs score axial, limb, orolingual, post value / AIMs score locomotive, post value: after 3-day drug withdrawal, L-DOPA (20 mg/kg) administered; for onset of dyskinesia: combined administration with L-DOPA 10 mg/kg, compared to single administration of L-DOPA 20 mg/kg", "source_text": "It is known that abnormal involuntary movements (AIMS) are developed by repeated administration of L-DOPA to the Parkinson's disease model rat prepared by the method described in Test Example 1, and the treated rat is used as a model of an involuntary movement such as dyskinesia, or the like. AIMs are classified into 4 kinds: (1) axial AIMs: deflection or torsion of head, neck, and trunk towards the contralateral side of lesioned side of the brain, (2) limb AIMs: movements of mainly forelimb on the contralateral side of the lesioned side of the brain (bending or extension in the perpendicular direction or movements in the horizontal•back and forth directions, opening and closure of the digits etc.); (3) orolingual AIMs: jaw movements, facial distortion, tongue protrusion (accompanying behavior of biting hair, skin of forelimb on the contralateral side of the lesioned side); and (4) locomotive AIMs: contralateral rotational behavior. Of these, locomotive AIMs are induced by dopamine agonists such as bromocriptine causing less dyskinesia, and are not suppressed by a drug having an […] activity such as amantadine. From these, locomotive AIMs have been reported to reflect normal movements improved by an antiparkinsonian effect (Neurobiology of Disease, 2002, vol. 10, p. 165-86; European Journal of Neuroscience, 2002, vol. 15, p. 120-132). […] The frequency of the above-mentioned four kinds of AIMs were scored in 0 to 4 points (0 point: no symptom, 1 point: appearance in less than 50% of observation time, 2 points: appearance in 50% or more of observation time, 3 points: symptom is maintained but prevented by strong sensory stimuli, 4 points: symptom is maintained and is not prevented by strong sensory stimuli). As for axial AIMs and limb AIMs, the amplitude thereof was scored in 1 to 4 points (axial AIMs; 1 point: deflection of head and neck is less than 30 degrees, 2 points: deflection of head and neck is not less than 30 degrees and less than 60 degrees, 3 points: deflection and torsion of head, neck and upper trunk is not less than 60 degrees and less than 90 degrees, 4 points: deflection and torsion of head, neck and trunk is 90 degrees or more and balance is lost, limb AIMs; 1 point: tiny oscillatory movements of limb and distal forelimb, 2 points: low amplitude but visible translocation of both distal and proximal limbs, 3 points: translocation of the whole limb with visible contraction of shoulder muscles, 4 points: strong movements of limb and shoulder at maximul amplitude). SD male rats (6-week-old, CHARLES RIVER LABORATORIES JAPAN, INC.) were used for the test. Parkinson's disease model rats were prepared according to the method described in Test Example 1. After a postoperative period of 6 days or longer, L-DOPA (20 mg/kg/day) was repetitively and orally administered once or twice per day to give a model rat of involuntary movement such as dyskinesia, or the like. […] The rats almost free of AIMs after the lapse of 1 week or longer from repetitive administration of L-DOPA were removed. As the group constitution, an L-DOPA 20 mg/kg and 0.5% MC solution administration group (single administration group) and an L-DOPA 10 mg/kg and test compound administration group (combined administration group) were used. The test compound was used in the same dose as in Test Example 1, whereby the conditions under which both the single administration group and the combined administration group show the same level of antiparkinsonian activity were set. After grouping, multiple doses of L-DOPA 20 mg/kg and 0.5% MC solution, and L-DOPA 10 mg/kg and test compound were orally administered, respectively. […] After the completion of administration, a 3-day drug withdrawal period was taken, and then L-DOPA (20 mg/kg) was administered. The AIMs score at this time was taken as the post value. The AIMs score of each group was expressed as mean±standard deviation of total AIMs score observed in individual rats for one day. […]"}, "[3]": {"details": "L-DOPA (20 mg/kg) + 0.5% MC solution (single administration)"}, "[4]": {"details": "group L-DOPA (20 mg/kg) + 0.5% MC solution"}, "[5]": {"details": "L-DOPA (10 mg/kg) + compound 1 (30 mg/kg)"}, "[6]": {"details": "group L-DOPA (10 mg/kg) + compound 1 (30 mg/kg)"}, "[7]": {"details": "L-DOPA (10 mg/kg) + compound 2 (1 mg/kg)"}, "[8]": {"details": "group L-DOPA (10 mg/kg) + compound 2 (1 mg/kg)"}},
  "note": "Several values for one entry are separate records, joined by “and”; a condition that tells them apart may be missing. Equal entries are not always repeated.",
  "data": [
    {"smiles": "N[C@@H](Cc1ccc(O)c(O)c1)C(=O)O", "note": "[L-DOPA, reference compound]", "values": [
      {"measurement": "number of rotations", "setting": "[1]; L-DOPA (10 mg/kg) + 0.5% MC solution (single administration)", "result": "534.3 ± 123.4 and 367.3 ± 140.6"},
      {"measurement": "AIMs score axial, limb, orolingual, day 1-3", "setting": "[2]; [3]", "result": "272.9 ± 25.9 and 271.9 ± 12.6"},
      {"measurement": "AIMs score locomotive, day 1-3", "setting": "[2]; [3]", "result": "16.0 ± 2.1 and 12.4 ± 2.6"},
      {"measurement": "AIMs score axial, limb, orolingual, day 8-10", "setting": "[2]; [3]", "result": "291.7 ± 16.7 and 232.4 ± 26.2"},
      {"measurement": "AIMs score locomotive, day 8-10", "setting": "[2]; [3]", "result": "16.1 ± 2.1 and 13.6 ± 1.7"},
      {"measurement": "AIMs score axial, limb, orolingual, post value", "setting": "[2]; [4]", "result": "129.3 ± 14.3 and 139.1 ± 12.6"},
      {"measurement": "AIMs score locomotive, post value", "setting": "[2]; [4]", "result": "16.3 ± 2.8 and 15.0 ± 1.4"}
    ]},
    {"smiles": "CC(C)(O)CCN1CCN(c2cc3nc(-c4ccco4)nn3c(N)n2)CC1", "note": "[compound 1]", "values": [
      {"measurement": "antiparkinsonian activity compared with single administration of L-DOPA 20 mg/kg", "setting": "[1]", "result": "same level"},
      {"measurement": "number of rotations", "setting": "[1]; L-DOPA (10 mg/kg) + compound 1 (30 mg/kg), mean±standard deviation", "result": "1732.2 ± 305.2"},
      {"measurement": "effect on L-DOPA induced rotational behavior, namely antiparkinsonian activity", "setting": "[1]", "result": "significantly enhanced"},
      {"measurement": "AIMs score axial, limb, orolingual, day 1-3", "setting": "[2]; [5]", "result": "78.3 ± 17.2"},
      {"measurement": "AIMs score locomotive, day 1-3", "setting": "[2]; [5]", "result": "16.3 ± 3.5"},
      {"measurement": "AIMs score axial, limb, orolingual, day 8-10", "setting": "[2]; [5]", "result": "105.0 ± 24.1"},
      {"measurement": "AIMs score locomotive, day 8-10", "setting": "[2]; [5]", "result": "16.4 ± 3.9"},
      {"measurement": "onset of dyskinesia", "setting": "[2]", "result": "significant suppression"},
      {"measurement": "AIMs score axial, limb, orolingual, post value", "setting": "[2]; [6]", "result": "106.9 ± 14.0"},
      {"measurement": "AIMs score locomotive, post value", "setting": "[2]; [6]", "result": "17.1 ± 3.1"}
    ]},
    {"smiles": "COCCOc1ccc(N2CCN(CCn3ncc4c3nc(N)n3nc(-c5ccco5)nc43)CC2)cc1", "note": "[compound 2]", "values": [
      {"measurement": "antiparkinsonian activity compared with single administration of L-DOPA 20 mg/kg", "setting": "[1]", "result": "same level"},
      {"measurement": "number of rotations", "setting": "[1]; L-DOPA (10 mg/kg) + compound 2 (1 mg/kg), mean±standard deviation", "result": "1543.5 ± 263.2"},
      {"measurement": "effect on L-DOPA induced rotational behavior, namely antiparkinsonian activity", "setting": "[1]", "result": "significantly enhanced"},
      {"measurement": "AIMs score axial, limb, orolingual, day 1-3", "setting": "[2]; [7]", "result": "146.4 ± 13.3"},
      {"measurement": "AIMs score locomotive, day 1-3", "setting": "[2]; [7]", "result": "14.8 ± 1.7"},
      {"measurement": "AIMs score axial, limb, orolingual, day 8-10", "setting": "[2]; [7]", "result": "117.5 ± 15.5"},
      {"measurement": "AIMs score locomotive, day 8-10", "setting": "[2]; [7]", "result": "14.4 ± 1.7"},
      {"measurement": "onset of dyskinesia", "setting": "[2]", "result": "significant suppression"},
      {"measurement": "AIMs score axial, limb, orolingual, post value", "setting": "[2]; [8]", "result": "159.8 ± 24.7"},
      {"measurement": "AIMs score locomotive, post value", "setting": "[2]; [8]", "result": "13.1 ± 1.7"}
    ]}
  ]
}
